Results published in article PMC7782785, “Outer-membrane-acting peptides and lipid II-targeting antibiotics cooperatively kill Gram-negative pathogens” (Communications Biology, 2021).
Values after ≈ are worked out from the molar mass of the structure shown. Where a SMILES comes first, the peptide text is derived from it. [ ]: non-standard residue; d: D form.

How the values were obtained:
[1] = system: human red blood cells (hRBCs); assay: Hemolytic activity; settings: 1 h
Method: (§1) Hemolytic activity was determined with fresh human red blood cells (hRBCs)[28]. The hRBCs were centrifuged (1000×g, 5 min) and the supernatant was discarded. The pellets were washed three times with PBS and diluted in PBS to make the cell stock solution with a cell density of 2*10^8 cells/mL. […] 1% Triton X-100 and PBS were used as controls. The cells were incubated at 37 °C for 1 h and centrifuged at 2000 rpm for 5 min. The supernatant was transferred to a new 96-well plate and hemolysis was monitored by measuring the absorbance at 450 nm (OD450). Hemolysis levels were calculated as percentage. % hemolysis = 100 × (As−A0)/(At−A0), where As, A0, and At are the absorbance of the hRBCs suspension in PBS with antimicrobial agents (As), without antimicrobial agents (A0), and with 1% Triton X-100 (At). […] For the TI calculation (TI = MHC/GM), other factors as the GM (geometric mean of MIC value of all the Gram-negative strains tested) were calculated.

E. faecium LMG16003 = assay type: cell-based
Method: (§2) MIC tests were performed in triplicate by liquid growth inhibition microdilution assays in sterile polypropylene microtiter plates according to the Clinical and Laboratory Standards Institute (CLSI) guideline for bacteria that grow aerobically. Briefly, the indicator strains were first streaked on the appropriate agar plate, and then single colonies were picked and incubated overnight in liquid broth. The final inoculum of bacteria was 5*10^5 CFU/mL prepared in CAMHB (cationic adjusted Mueller–Hinton broth, Sigma-Aldrich) or CAMHB plus 5% of lysed horse blood (TCS Biosciences, Buckingham, UK) in the case of S. pneumoniae. The antimicrobials were 2-fold serially diluted and 50 µL diluted bacterial suspension was added to each well to make the final volume 100 µL. The microtiter plates and the count plates were incubated at 37 °C for 16–20 h without shaking. Growth inhibition was assessed by measuring the OD600 using a microplate reader (Tecan Infinity F200). The lowest concentration of the antimicrobials that inhibits visible growth of the indicator strain is identified as the MIC value.

E. faecalis V583 = assay type: cell-based
Method: as §2

S. aureus LMG8224 = assay type: cell-based
Method: as §2

HEK-293 cells = assay: Cytotoxicity, cell viability (CellTiter-Glo); settings: all the concentrations tested (up to 88 µM)
Method: 96-well plates were seeded with HEK-293 cells at a concentration of 3*10^5 cells/well in 100 µL of DMEM growth medium supplemented with 1% NEAA and 10% FBS. Border wells were filled with 100 µL of sterile PBS. […] ATP levels were measured by adding 50 µL of CellTiter-Glo reagent (Promega, Madison, US) to each well, and luminescence was measured with a SpectraMax i3 microplate reader after 5 minutes of incubation. The potential effect of the tested compounds on cell viability was determined by comparing the signal obtained in the presence of different concentrations of the compounds with those obtained in the control wells. All these tests were performed in triplicate.

S. pneumoniae R6 = assay: MIC, broth microdilution; assay type: cell-based; settings: S. pneumoniae R6 (Gram-positive); compound alone; CAMHB plus 5% lysed horse blood
Method: as §2

[2] = system: all the Gram-negative strains tested; assay: organism not typed
Method: as §2
(§3) The condition for the tests and the analysis of the plates were performed as described above for the MIC tests.
as §1, with “The cells were incubated at 37 °C for 1 h and centrifuged at 2000 rpm for 5 min.” left out

E. aerogenes LMG 02094 [3] = assay: microbe, parasite or virus in culture; settings: LMG 02094
Method: as §2, §3

A. baumannii LMG 01041 [4] = assay: microbe, parasite or virus in culture; settings: LMG 01041
Method: as §2, §3

K. pneumoniae LMG 20218 [5] = assay: microbe, parasite or virus in culture; settings: LMG 20218
Method: as §2, §3

E. coli LMG 15862 [6] = assay: microbe, parasite or virus in culture; settings: LMG 15862
Method: as §2, §3

P. aeruginosa LMG 6395 [7] = assay: microbe, parasite or virus in culture; settings: LMG 6395
Method: as §2, §3

E. aerogenes LMG 02094 [8] = system: E. aerogenes LMG 02094
Method: (§4) For the synergy test, standard checkerboard broth microdilution assays were conducted to test the synergistic effect of combined antimicrobials using the same condition as before[51],[56]. […] The initial concentration of both peptides was their individual MIC. 50 µL fresh bacterial suspension prepared as above was added to the wells already containing the antimicrobial compound mixture to achieve 100 µL final volume per well.
(§5) The fractional inhibitory concentration (FIC) indices[57] were calculated using the formula FICI = FICa + FICb = MICac/MICa + MICbc/MICb, to determine whether the combination is additive, synergistic or antagonistic[51],[57]. The MICa and MICb is the MIC of compound A or B alone, respectively. MICac is the MIC of compound A in combination with compound B and MICbc is the MIC of compound B when it was combined with compound A. The FIC corresponds to the MIC of a compound in combination with the other compound, divided by the MIC of the compound alone. FICa is FIC of compound A while FICb is FIC of compound B. The FICI was interpreted according to EUCAST[58] as follows: synergistic, FICI ≤ 0.5; additive,0.5 < FICI ≤ 1; indifferent, 1 < FICI < 2; antagonistic, FICI ≥ 2.
as §3

A. baumannii LMG 01041 [9] = system: A. baumannii LMG 01041
Method: as §4, §5, §3

K. pneumoniae LMG 20218 [10] = settings: LMG 20218
Method: as §4, §5, §3

E. coli LMG 15862 [11] = system: E. coli LMG 15862
Method: as §4, §5, §3

P. aeruginosa LMG 6395 [12] = system: P. aeruginosa LMG 6395
Method: as §4, §5, §3

[13] = human plasma (EDTA K2), 3.2 mM peptide, 37 °C, 200 rpm, samples at 1, 3, 6 h; read-out halo size in spot-on-lawn against K. pneumoniae LMG 20218; triplicate
Method: For plasma stability, the peptides were lyophilized and resuspended in plasma or PBS (as a control) at a final concentration of 3.2 mM. After that, the peptides were incubated with shaking (200 rpm) during 6 h at 37 °C. At time 1, 3, and 6 h, 10 µL samples were tested against K. pneumoniae LMG 20218 by a spot-on-lawn test. Reduction in the size of the halo was related to the degradation of the peptide. The test was performed in triplicate.

**Q.** Which “TI, therapeutic index (MHC/GM)” value [1] does the source give for `CC[C@@H](C)[C@@H](NC(=O)[C@H](N)CCCNC(=N)N)C(=O)N[C@@H](C(=O)N[C@H](CCC(N)=O)C(=O)N[C@H](CCCNC(=N)N)C(=O)N[C@@H](C(=O)N[C@H](CCCCN)C(=O)N[C@H](CCCCN)C(=O)N[C@H](Cc1c[nH]c2ccccc12)C(=O)N[C@H](CC(C)C)C(=O)N[C@H](CCCNC(=N)N)C(N)=O)[C@H](C)CC)C(C)C` [D-11] (H-[dR][dI][dV][dQ][dR][dI][dK][dK][dW][dL][dR]-NH2) here?
**A.** 39.03

**Q.** What about the “MHC, minimal hemolytic concentration that caused 10% hemolysis of hRBCs” value ([1]; red cells of human) of the same compound?
**A.** 1200 µM

**Q.** And the “MHA, mean hemolytic activity” value ([1]; red cells of human, 50 µM)?
**A.** 0%

**Q.** What about the “MHA, mean hemolytic activity” value ([1]; red cells of human, 100 µM) of the same compound?
**A.** 0%

**Q.** And the “MHA, mean hemolytic activity” value ([1]; red cells of human, 200 µM)?
**A.** 0%

**Q.** And the “MHA, mean hemolytic activity” value ([1]; red cells of human, 400 µM)?
**A.** 0%

**Q.** And the “MHA, mean hemolytic activity” value ([1]; red cells of human, 600 µM)?
**A.** 0%

**Q.** What about the MIC (E. faecium LMG16003) of the same compound?
**A.** 10.6 µM (≈ 15.8 µg/mL)

**Q.** What about the MIC (E. faecalis V583) of the same compound?
**A.** 64 µM (≈ 95.7 µg/mL)

**Q.** What about the MIC (S. aureus LMG8224) of the same compound?
**A.** > 85 µM

**Q.** And the “effect on viability of HEK-293 cells” value (HEK-293 cells)?
**A.** did not affect the viability

**Q.** What about the MIC (S. pneumoniae R6) of the same compound?
**A.** > 85 µM

**Q.** What about the “GM, MIC geometric mean against all the Gram-negative strains tested” value [2] of the same compound?
**A.** 30.75 µM

**Q.** What about the MIC (E. aerogenes LMG 02094 [3]) of the same compound?
**A.** 32 µM (≈ 47.8 µg/mL)

**Q.** What about the MIC (A. baumannii LMG 01041 [4]) of the same compound?
**A.** 8 µM (≈ 12 µg/mL)

**Q.** And the MIC (K. pneumoniae LMG 20218 [5])?
**A.** 32 µM (≈ 47.8 µg/mL)

**Q.** What about the MIC (E. coli LMG 15862 [6]) of the same compound?
**A.** 4 µM (≈ 5.98 µg/mL)

**Q.** And the MIC (P. aeruginosa LMG 6395 [7])?
**A.** 16 µM (≈ 23.9 µg/mL)

**Q.** What about the “FICI, peptide + nisin” value (E. aerogenes LMG 02094 [8]) of the same compound?
**A.** 0.188

**Q.** And the “FICI, peptide + nisin” value (A. baumannii LMG 01041 [9])?
**A.** 0.094

**Q.** What about the “FICI, peptide + nisin” value (K. pneumoniae LMG 20218 [10]) of the same compound?
**A.** 0.078

**Q.** What about the “FICI, peptide + nisin” value (E. coli LMG 15862 [11]) of the same compound?
**A.** 0.375

**Q.** And the “FICI, peptide + nisin” value (P. aeruginosa LMG 6395 [12])?
**A.** 0.156

**Q.** And the stability in plasma [13]?
**A.** completely resistant to degradation in plasma
